In publication PMC4640066 (Nature Communications, 2015):

Legend:
[1] = test system: HeLa cells; test: MT nucleation (regrowth) assay, HeLa cells; assay type: cell-based, human; details: 30 μM, MT regrowth 1 min, EB1 area
Description: HeLa and U2OS cells were cultured in DMEM+GlutaMAX (Gibco) supplemented with 10% fetal bovine serum (FBS), 100 U ml^−1 penicillin, 100 μg ml^−1 streptomycin and 1 mM sodium pyruvate in a humidified atmosphere containing 5% CO2. RPE-1 cells were cultured in DMEM/F-12 (Gibco) supplemented with 10% FBS, 2 mM L-glutamine, 100 U ml^−1 penicillin, 100 μg ml^−1 streptomycin, 1 mM sodium pyruvate containing 10% FBS in a humidified atmosphere containing 5% CO2.
To depolymerize MTs, interphase cells were treated with 10 μM of nocodazole for 3 h, washed with cold medium and incubated on ice for 1 h. Mitotic cells were treated with 10 μM of STLC for 6 h, washed with cold medium and incubated on ice for 1 h. Subsequently, both cells were incubated in medium containing 1% DMSO or 30 μM of gatastatin for 10 min on ice. Cells were then put in warmed medium containing either 1% DMSO or 30 μM of gatastatin and were incubated at 37 °C (interphase cells) or 20 °C (mitotic cells) for 1 min. The cells were immediately fixed with cold MeOH (−20 °C).
After blocking with PBS containing 0.5% bovine serum albumin, cells were incubated with anti-EB1 antibody (1:500 dilution, Abcam, Cat# ab53358), anti-α-tubulin antibody (1:500 dilution, Sigma, Cat# T9026) and anti-pericentrin antibody (1:2,000 dilution, Abcam, Cat# ab4448). […]

[2] = molecular target: T1, human γ-tubulin (Homo sapiens, UniProt P23258); test: Inhibition of GTP binding of γ-tubulin (α-[32P]-GTP crosslinking assay); details: 60 μM compound; 70 nM γ-tubulin, 100 nM α-[32P]-GTP; mean±s.d.
T1 construct: myc (C); 6His (C); made in house; host or cells: Sf21 insect cells (baculovirus)
T1 sequence (P23258 whole entry): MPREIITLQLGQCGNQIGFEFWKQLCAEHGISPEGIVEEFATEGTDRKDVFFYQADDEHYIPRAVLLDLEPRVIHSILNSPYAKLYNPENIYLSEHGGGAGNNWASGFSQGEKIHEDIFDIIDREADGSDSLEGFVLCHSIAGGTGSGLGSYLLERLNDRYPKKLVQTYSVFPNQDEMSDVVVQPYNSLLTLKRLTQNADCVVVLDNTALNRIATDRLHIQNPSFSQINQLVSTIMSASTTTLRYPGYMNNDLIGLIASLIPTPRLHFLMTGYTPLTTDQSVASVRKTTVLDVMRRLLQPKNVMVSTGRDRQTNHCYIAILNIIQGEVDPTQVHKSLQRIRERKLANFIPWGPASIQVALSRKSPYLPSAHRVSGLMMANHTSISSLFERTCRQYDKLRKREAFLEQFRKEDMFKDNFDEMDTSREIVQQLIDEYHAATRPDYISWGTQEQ
Description: For analysis of the effect of drugs on GTP binding of γ-tubulin, 70 nM of purified human γ-tubulin in GTP-binding buffer (50 mM MES, 5 mM MgCl2, 1 mM EGTA, pH 6.6) was incubated with or without compounds for 15 min at 20 °C. A final concentration of 100 nM of α-[^32P]-GTP was added and incubated at 20 °C for 30 min. After incubation, bound α-[^32P]-GTP was crosslinked to γ-tubulin for 60 s by illumination with a ultraviolet lamp using CL-1000 Ultraviolet Crosslinker. Protein with the crosslinked GTP was separated from unbound nucleotide by TCA precipitation and SDS–PAGE, and ^32P labelling was measured using a Typhoon FLA-7000 (General Electronic Company). Band intensities were quantified with the ImageJ software.

[3] = molecular target: T2, α/β-tubulin (Sus scrofa, UniProt P02550+P02554); test: MT dynamics in vitro by TIRF microscopy of single MTs; assay type: biochemical, porcine; details: 30 μM, 5 μM tubulin, GMPCPP seeds
T2 construct: α/β-Tubulin was purified from porcine brain; from tissue; host or cells: porcine brain
T2 sequence (P02550 whole entry): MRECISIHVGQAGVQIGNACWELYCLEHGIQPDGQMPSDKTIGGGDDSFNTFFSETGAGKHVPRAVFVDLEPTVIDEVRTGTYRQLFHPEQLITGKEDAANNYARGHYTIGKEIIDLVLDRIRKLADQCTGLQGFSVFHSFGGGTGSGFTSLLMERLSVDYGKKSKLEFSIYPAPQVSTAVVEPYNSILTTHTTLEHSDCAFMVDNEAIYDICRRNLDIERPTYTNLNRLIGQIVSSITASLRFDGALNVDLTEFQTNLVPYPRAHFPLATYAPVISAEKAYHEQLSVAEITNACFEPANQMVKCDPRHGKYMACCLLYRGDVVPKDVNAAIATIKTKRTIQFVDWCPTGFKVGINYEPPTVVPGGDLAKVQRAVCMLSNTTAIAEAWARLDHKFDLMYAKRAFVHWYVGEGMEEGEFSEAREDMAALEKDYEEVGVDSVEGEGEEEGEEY
T2 sequence (P02554 whole entry): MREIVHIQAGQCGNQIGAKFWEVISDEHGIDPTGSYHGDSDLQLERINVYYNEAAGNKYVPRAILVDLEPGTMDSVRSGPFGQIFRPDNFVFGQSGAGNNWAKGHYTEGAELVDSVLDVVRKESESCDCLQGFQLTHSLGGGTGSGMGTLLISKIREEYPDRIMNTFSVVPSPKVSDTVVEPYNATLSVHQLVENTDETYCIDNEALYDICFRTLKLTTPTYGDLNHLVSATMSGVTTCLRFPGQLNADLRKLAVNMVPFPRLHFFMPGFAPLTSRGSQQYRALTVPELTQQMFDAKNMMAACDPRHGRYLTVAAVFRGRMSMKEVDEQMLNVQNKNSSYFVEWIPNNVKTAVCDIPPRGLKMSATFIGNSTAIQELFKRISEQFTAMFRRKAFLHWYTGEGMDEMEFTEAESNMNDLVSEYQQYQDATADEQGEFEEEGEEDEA
Description: Purified α/β-tubulin was labelled with tetramethylrhodamine Succinimidyl Ester (C-1171, Life Technologies), Alexa Fluor 647 NHS Ester (A-20106, Life Technologies) or NHS-LC-biotin (21336, Life Technologies) as described. Briefly, α/β-tubulin was polymerized to form MTs. Then, the MTs were centrifuged, resuspended in labelling buffer containing NHS-conjugated dye or biotin. After the labelling reaction, two cycles of polymerization and depolymerization were performed to obtain active α/β-tubulin.
GMPCPP MT seeds were prepared by copolymerization of non-labelled tubulin, tetramethylrhodamine-labelled tubulin and biotin-labelled tubulin with 0.2 mM GMPCPP to yield the rhodamine and biotin labelling ratio 2% and 3%, respectively. GMPCPP was prepared enzymatically from GMPCP (M3170, Sigma-Aldrich) and nucleotide diphosphate kinase (N0379, Sigma-Aldrich)[35]. The glass chambers for observation were prepared as follows. […] The images of MTs were observed under total internal reflection fluorescence microscopy (IX81, Olympus) with a × 100 objective lens (UPlanSApo, numerical aperture (NA) 1.40, Olympus) and recorded at the frame rate of two frames per second using iXon3 EM CCD camera (Andor). […]

With `COc1cc2c(=O)c(-c3cc(OC)c4c(c3OC)OCO4)coc2cc1OCc1ccccc1` [Gatastatin, O^7-demethylbenzyl AG1] the “Effect on MT nucleation activity of interphase and mitotic centrosomes” value [1] was “inhibited MT nucleation activity”, the “GTP binding (control %)” value [2] was 6.7±3.7% and the “Effect on MT growth velocity (TIRF analysis of single MTs)” value [3] was “did not affect MT growth velocity”.
